Test results published in ChEMBL document CHEMBL1201862, “PubChem BioAssay data set” (2004).
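Briefly, cells in 96-well plates were exposed to five compound concentrations for 48 h, and endpoints were estimated by linear interpolation. Here, GI50 denotes the concentration required for 50% inhibition of growth.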 Activity calls are given as the source filed them. No stated cut-off is given here; in the data, active = GI50 up to about 1.1 µM and inactive = higher.

Columns and labels:
Experiment in all cases: NCI-60 cell line screen, 48 h
[1] = tested on: IGROV-1
[2] = tested on: SF-268
[3] = tested on: HOP-62
[4] = tested on: Malme-3M
[5] = tested on: SF-295
[6] = tested on: SN12C
[7] = tested on: SR
[8] = tested on: NCI-H226
[9] = tested on: SNB-19
[10] = tested on: MDA-MB-435
[11] = tested on: HCC 2998
[12] = tested on: MDA-MB-231
[13] = tested on: OVCAR-4
[14] = tested on: SW-620
[15] = tested on: TK-10
[16] = tested on: UACC-62
[17] = tested on: HT-29
[18] = tested on: NCI-H460
[19] = tested on: RPMI-8226
[20] = tested on: SK-MEL-2
[21] = tested on: SK-MEL-5
[22] = tested on: BT-549
[23] = tested on: OVCAR-3
[24] = tested on: MDA-N
[25] = tested on: EKVX
[26] = tested on: OVCAR-8
[27] = tested on: HL-60
[28] = tested on: MOLT-4
[29] = tested on: COLO 205
[30] = tested on: HCT-116
[31] = tested on: T47D
[32] = tested on: CAKI-1
[33] = tested on: ACHN
[34] = tested on: RXF 393
[35] = tested on: HCT-15
[36] = tested on: OVCAR-5
[37] = tested on: U-251
[38] = tested on: NCI-H23
[39] = tested on: KM12
[40] = tested on: 786-0
[41] = tested on: MCF7
[42] = tested on: DU-145
[43] = tested on: K562
[44] = tested on: NCI-H522
[45] = tested on: SK-MEL-28
[46] = tested on: Hs-578T
[47] = tested on: PC-3
[48] = tested on: LOX IMVI
[49] = tested on: A498
[50] = tested on: NCI/ADR-RES
[51] = tested on: UO-31
[52] = tested on: SNB-75
[53] = tested on: UACC-257
[54] = tested on: A549
[55] = tested on: M14
[56] = tested on: CCRF-CEM
[57] = tested on: SF-539
[58] = tested on: SK-OV-3

CNC(=S)Nc1sc2c(c1C#N)CCCC2
GI50 [1]: > 75 µM (inactive) | GI50 [2]: > 75 µM (inactive) | GI50 [3]: > 75 µM (inactive) | GI50 [4]: > 75 µM (inactive) | GI50 [5]: > 75 µM (inactive) | GI50 [6]: > 75 µM (inactive) | GI50 [7]: > 75 µM (inactive) | GI50 [8]: > 75 µM (inactive) | GI50 [9]: > 75 µM (inactive) | GI50 [10]: > 75 µM (inactive) | GI50 [11]: > 75 µM (inactive) | GI50 [12]: > 75 µM (inactive) | GI50 [13]: > 75 µM (inactive) | GI50 [14]: > 75 µM (inactive) | GI50 [15]: > 75 µM (inactive) | GI50 [16]: > 75 µM (inactive) | GI50 [17]: > 75 µM (inactive) | GI50 [18]: > 75 µM (inactive) | GI50 [19]: > 75 µM (inactive) | GI50 [20]: > 75 µM (inactive) | GI50 [21]: > 75 µM (inactive) | GI50 [22]: > 75 µM (inactive) | GI50 [23]: > 75 µM (inactive) | GI50 [24]: > 75 µM (inactive) | GI50 [25]: > 75 µM (inactive) | GI50 [26]: > 75 µM (inactive) | GI50 [27]: > 75 µM (inactive) | GI50 [28]: > 75 µM (inactive) | GI50 [29]: > 75 µM (inactive) | GI50 [30]: > 75 µM (inactive) | GI50 [31]: > 75 µM (inactive) | GI50 [32]: > 75 µM (inactive) | GI50 [33]: > 75 µM (inactive) | GI50 [34]: > 75 µM (inactive) | GI50 [35]: > 75 µM | GI50 [36]: > 75 µM (inactive) | GI50 [37]: > 75 µM (inactive) | GI50 [38]: > 75 µM (inactive) | GI50 [39]: > 75 µM (inactive) | GI50 [40]: > 75 µM (inactive) | GI50 [41]: > 75 µM (inactive) | GI50 [42]: > 75 µM (inactive) | GI50 [43]: > 75 µM (inactive) | GI50 [44]: > 75 µM (inactive) | GI50 [45]: > 75 µM (inactive) | GI50 [46]: > 75 µM (inactive) | GI50 [47]: > 75 µM (inactive) | GI50 [48]: > 75 µM (inactive) | GI50 [49]: > 75 µM (inactive) | GI50 [50]: > 75 µM (inactive) | GI50 [51]: > 75 µM (inactive) | GI50 [52]: > 75 µM (inactive) | GI50 [53]: > 75 µM (inactive)

COc1cc(/C=C2\CC/C(=C\c3cc(OC)c(O)c(OC)c3)C2=O)cc(OC)c1O
GI50 [1]: 0.881 µM (active) | GI50 [2]: 2.3 µM (inactive) | GI50 [3]: 3.13 µM (inactive) | GI50 [54]: 3.19 µM (inactive) | GI50 [4]: 0.345 µM (active) | GI50 [5]: 3.98 µM (inactive) | GI50 [6]: 8.32 µM (inactive) | GI50 [7]: 2.88 µM (inactive) | GI50 [8]: 3.94 µM (inactive) | GI50 [9]: 3.69 µM (inactive) | GI50 [10]: 1.39 µM (inactive) | GI50 [11]: 1.67 µM (inactive) | GI50 [12]: 2.14 µM (inactive) | GI50 [13]: 1.69 µM (inactive) | GI50 [55]: 2.19 µM (inactive) | GI50 [14]: 1.88 µM (inactive) | GI50 [15]: 5.32 µM (inactive) | GI50 [16]: 1.35 µM (inactive) | GI50 [17]: 10.4 µM (inactive) | GI50 [18]: 1.89 µM (inactive) | GI50 [19]: 1.04 µM (active) | GI50 [20]: 0.667 µM (active) | GI50 [21]: 1.95 µM (inactive) | GI50 [56]: 1.85 µM (inactive) | GI50 [22]: 2.69 µM (inactive) | GI50 [23]: 2.2 µM (inactive) | GI50 [24]: 2.27 µM (inactive) | GI50 [25]: 3.13 µM (inactive) | GI50 [26]: 3.01 µM (inactive) | GI50 [27]: 1.51 µM (inactive) | GI50 [28]: 1.02 µM (active) | GI50 [29]: 17.1 µM (inactive) | GI50 [57]: 3.61 µM (inactive) | GI50 [58]: 3.81 µM (inactive) | GI50 [30]: 1.83 µM (inactive) | GI50 [31]: 2.32 µM (inactive) | GI50 [32]: 2.72 µM (inactive) | GI50 [33]: 2.05 µM (inactive) | GI50 [34]: 1.72 µM (inactive) | GI50 [35]: 1.4 µM | GI50 [36]: 6.18 µM (inactive) | GI50 [37]: 2.06 µM (inactive) | GI50 [38]: 1.98 µM (inactive) | GI50 [39]: 1.48 µM (inactive) | GI50 [40]: 4.9 µM (inactive) | GI50 [41]: 1.91 µM (inactive) | GI50 [42]: 2.21 µM (inactive) | GI50 [43]: 2.76 µM (inactive) | GI50 [44]: 0.798 µM (active) | GI50 [45]: 1.05 µM (active) | GI50 [46]: 2.09 µM (inactive) | GI50 [47]: 2.62 µM (inactive) | GI50 [48]: 2.29 µM (inactive) | GI50 [49]: 1.01 µM (active) | GI50 [50]: 2.79 µM (inactive) | GI50 [51]: 3.43 µM (inactive) | GI50 [52]: 1.19 µM (inactive) | GI50 [53]: 2.03 µM (inactive)
